ChEMBL document CHEMBL4376834, “Discovery of 4H-Chromen-4-one Derivatives as a New Class of Selective Rho Kinase (ROCK) Inhibitors, which Showed Potent Activity in ex Vivo Diabetic Retinopathy Models” (J Med Chem, 2019)

Columns and labels:
[1] = target: cGMP-dependent protein kinase 1 (Homo sapiens, UniProt Q13976); assay: Inhibition of recombinant full length human PKG1beta using RRRLSFAEPG as substrate incubated for 40 mins in presence of [gamma-33P]ATP by radiometric scintillation counting analysis
[2] = target: Receptor-type tyrosine-protein kinase FLT3 (Homo sapiens, UniProt P36888); assay: Inhibition of recombinant human FLT3 (564 to end residues) using EAIYAAPFAKKK as substrate after 40 mins in presence of [gamma-33ATP] by radiometric scintillation counting analysis
[3] = target: Testis-specific serine/threonine-protein kinase 3 (Homo sapiens, UniProt Q96PN8); assay: Inhibition of recombinant full-length human TSSK3 using AMARAASAAALAR as substrate incubated for 40 mins in presence of [gamma33P]ATP by radiometric scintillation counting analysis
[4] = target: Fibroblast growth factor receptor 1 (Homo sapiens, UniProt P11362, V561M); assay: Inhibition of recombinant human FGFR1 V561M mutant (456 to 765 residues) using GGEEEEYFELVKK as substrate after 40 mins in presence of [gamma-33ATP] by radiometric scintillation counting analysis
Sequence of Fibroblast growth factor receptor 1 (P11362 22-822 V561M limits assumed): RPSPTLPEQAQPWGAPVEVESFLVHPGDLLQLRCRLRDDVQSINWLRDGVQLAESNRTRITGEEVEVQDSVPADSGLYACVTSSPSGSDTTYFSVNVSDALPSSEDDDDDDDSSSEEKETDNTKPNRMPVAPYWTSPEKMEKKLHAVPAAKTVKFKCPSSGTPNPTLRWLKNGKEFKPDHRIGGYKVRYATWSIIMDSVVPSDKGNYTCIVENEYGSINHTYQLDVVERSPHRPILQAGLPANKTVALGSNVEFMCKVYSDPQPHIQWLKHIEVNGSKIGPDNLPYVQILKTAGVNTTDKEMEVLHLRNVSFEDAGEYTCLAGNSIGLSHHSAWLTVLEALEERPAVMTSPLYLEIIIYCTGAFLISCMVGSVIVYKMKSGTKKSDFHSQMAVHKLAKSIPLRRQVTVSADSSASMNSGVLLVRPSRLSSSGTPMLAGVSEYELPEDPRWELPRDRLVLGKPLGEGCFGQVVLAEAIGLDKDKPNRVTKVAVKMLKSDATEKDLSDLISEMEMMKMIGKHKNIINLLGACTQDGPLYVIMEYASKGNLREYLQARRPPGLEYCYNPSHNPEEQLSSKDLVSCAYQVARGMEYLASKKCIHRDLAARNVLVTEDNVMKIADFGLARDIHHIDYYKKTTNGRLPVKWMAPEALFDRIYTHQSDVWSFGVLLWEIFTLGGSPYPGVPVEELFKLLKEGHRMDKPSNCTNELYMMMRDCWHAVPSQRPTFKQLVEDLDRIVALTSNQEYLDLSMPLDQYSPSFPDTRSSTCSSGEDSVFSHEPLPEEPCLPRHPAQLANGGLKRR

[5] = target: 5'-AMP-activated protein kinase catalytic subunit alpha-2 (Homo sapiens, UniProt P54646); assay: Inhibition of human full length AMPKalpha2 recombinant using AMARAASAAALAR as substrate incubated for 40 mins in presence of [gamma-33ATP] by radiometric scintillation counting analysis
Sequence of 5'-AMP-activated protein kinase catalytic subunit alpha-2 (P54646 whole entry): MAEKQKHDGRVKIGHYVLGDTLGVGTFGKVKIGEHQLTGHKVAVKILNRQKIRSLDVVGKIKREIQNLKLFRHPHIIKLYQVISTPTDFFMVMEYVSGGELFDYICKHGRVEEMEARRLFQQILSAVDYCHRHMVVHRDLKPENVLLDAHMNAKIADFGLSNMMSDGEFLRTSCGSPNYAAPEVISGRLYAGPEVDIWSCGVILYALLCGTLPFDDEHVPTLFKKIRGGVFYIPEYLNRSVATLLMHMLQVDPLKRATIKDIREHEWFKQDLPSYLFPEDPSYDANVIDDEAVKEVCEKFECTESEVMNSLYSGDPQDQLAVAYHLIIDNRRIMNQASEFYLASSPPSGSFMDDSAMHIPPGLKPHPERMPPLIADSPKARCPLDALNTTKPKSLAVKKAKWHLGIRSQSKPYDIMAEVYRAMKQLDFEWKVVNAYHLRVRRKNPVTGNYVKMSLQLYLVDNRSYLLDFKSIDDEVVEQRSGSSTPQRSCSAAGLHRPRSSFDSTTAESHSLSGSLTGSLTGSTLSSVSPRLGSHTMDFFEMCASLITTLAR

eIF-2-alpha kinase GCN2 = eIF-2-alpha kinase GCN2 (Homo sapiens, UniProt Q9P2K8, E556G); assay: Inhibition of recombinant full length human GCN2 E556G mutant using RSRSRSRSRSRSR as substrate after 40 mins in presence of [gamma-33ATP] by radiometric scintillation counting analysis
[6] = target: Serine/threonine-protein kinase pim-1 (Homo sapiens, UniProt P11309); assay: Inhibition of recombinant full length human Pim1 using KKRNRTLTV as substrate incubated for 40 mins in presence of [gamma33P]ATP by radiometric scintillation counting analysis
[7] = Protein binding in human plasma at 1 uM incubated incubated for 5 hrs under shaking conditions by LC-MS analysis; type: ADME, cell-free; conditions: read-out: PPB (converted)
[8] = target: Serine/threonine-protein kinase 33 (Homo sapiens, UniProt Q9BYT3); assay: Inhibition of recombinant full-length human STK33 using myelin basic protein as substrate incubated for 40 mins in presence of [gamma33P]ATP by radiometric scintillation counting analysis
Sequence of Serine/threonine-protein kinase 33 (Q9BYT3 whole entry): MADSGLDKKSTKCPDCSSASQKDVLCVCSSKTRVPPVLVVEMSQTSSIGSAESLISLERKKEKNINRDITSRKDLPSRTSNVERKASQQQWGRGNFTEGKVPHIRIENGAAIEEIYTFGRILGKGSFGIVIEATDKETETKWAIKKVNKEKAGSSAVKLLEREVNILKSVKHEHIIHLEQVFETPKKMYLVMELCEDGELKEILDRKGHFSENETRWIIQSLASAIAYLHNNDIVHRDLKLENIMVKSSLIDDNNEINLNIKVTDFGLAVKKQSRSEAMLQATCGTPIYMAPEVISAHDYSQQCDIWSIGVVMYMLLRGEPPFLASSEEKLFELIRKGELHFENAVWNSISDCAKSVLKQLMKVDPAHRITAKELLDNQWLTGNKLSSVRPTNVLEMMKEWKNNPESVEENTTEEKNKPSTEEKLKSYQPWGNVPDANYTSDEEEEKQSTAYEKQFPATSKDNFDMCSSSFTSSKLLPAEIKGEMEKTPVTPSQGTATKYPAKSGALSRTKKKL

[9] = Inhibition of recombinant human EphB2 A848S/K918E double mutant (560 to end residues) using poly(Glu, Tyr) 4:1 as substrate after 40 mins in presence of [gamma-33ATP] by radiometric scintillation counting analysis
[10] = target: Leukocyte tyrosine kinase receptor (Homo sapiens, UniProt P29376); assay: Inhibition of recombinant human LTK (450 to end residues) using GEEPLYWSFPAKK as substrate after 40 mins in presence of [gamma-33ATP] by radiometric scintillation counting analysis
[11] = Inhibition of recombinant human TIE2 Q939H/Q940H/Y897S triple mutant (771 to end residues) using EFPIYDFLPAKKK as substrate incubated for 40 mins in presence of [gamma33P]ATP by radiometric scintillation counting analysis
[12] = Inhibition of recombinant human MARK1 V16E/T20S double mutant (2 to end residues) using KKKVSRSGLYRSP as substrate incubated for 40 mins in presence of [gamma-33ATP by radiometric scintillation counting analysis
[13] = target: MAP kinase-interacting serine/threonine-protein kinase 2 (Homo sapiens, UniProt Q9HBH9); assay: Inhibition of recombinant full length human MNK2 using myelin basic protein as substrate incubated for 40 mins in presence of [gamma-33ATP by radiometric scintillation counting analysis
Sequence of MAP kinase-interacting serine/threonine-protein kinase 2 (Q9HBH9 whole entry): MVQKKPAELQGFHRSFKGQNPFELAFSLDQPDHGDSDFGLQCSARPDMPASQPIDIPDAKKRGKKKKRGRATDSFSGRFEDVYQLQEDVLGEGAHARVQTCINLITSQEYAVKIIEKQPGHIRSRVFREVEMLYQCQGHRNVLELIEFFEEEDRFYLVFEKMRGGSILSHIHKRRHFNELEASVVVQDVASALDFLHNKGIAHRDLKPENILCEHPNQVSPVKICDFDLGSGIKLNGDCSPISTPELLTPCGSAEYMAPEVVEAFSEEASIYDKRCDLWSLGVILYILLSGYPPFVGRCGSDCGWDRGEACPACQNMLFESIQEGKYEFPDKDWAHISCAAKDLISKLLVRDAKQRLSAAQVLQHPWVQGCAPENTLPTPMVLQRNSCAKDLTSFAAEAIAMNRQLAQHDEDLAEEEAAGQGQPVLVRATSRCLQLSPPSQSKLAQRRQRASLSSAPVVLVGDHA

[14] = target: Serine/threonine-protein kinase 35 (Homo sapiens, UniProt Q8TDR2); assay: Inhibition of recombinant full length human CLIK1 at 10 uM using RSRSRSRSRSRS as substrate measured after 40 mins in presence of [gamma33P]ATP by radiometric scintillation counting analysis
[15] = target: Serine/threonine-protein kinase pim-2 (Homo sapiens, UniProt Q9P1W9); assay: Inhibition of recombinant human Pim2 (2 to end residues) using RSRHSSYPAGT as substrate incubated for 40 mins in presence of [gamma33P]ATP by radiometric scintillation counting analysis
Sequence of Serine/threonine-protein kinase pim-2 (Q9P1W9 whole entry): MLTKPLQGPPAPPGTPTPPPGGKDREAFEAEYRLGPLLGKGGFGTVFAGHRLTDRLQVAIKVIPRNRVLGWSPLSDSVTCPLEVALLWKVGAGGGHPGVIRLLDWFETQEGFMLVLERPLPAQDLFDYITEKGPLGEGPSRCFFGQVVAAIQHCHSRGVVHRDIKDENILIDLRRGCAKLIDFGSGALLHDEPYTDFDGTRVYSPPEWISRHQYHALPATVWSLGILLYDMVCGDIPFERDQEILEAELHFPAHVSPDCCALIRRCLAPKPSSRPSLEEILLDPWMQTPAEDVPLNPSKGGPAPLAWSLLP

[16] = target: Serine/threonine-protein kinase D1 (Homo sapiens, UniProt Q15139); assay: Inhibition of recombinant full-length human PKCmu R135A mutant using KKLNRTLSVA as substrate incubated for 40 mins in presence of [gamma33P]ATP by radiometric scintillation counting analysis
[17] = target: Macrophage colony-stimulating factor 1 receptor (Homo sapiens, UniProt P07333); assay: Inhibition of recombinant human FMS (538 to end residues) using KKKSPGEYVNIEF as substrate after 40 mins in presence of [gamma-33ATP] by radiometric scintillation counting analysis
Sequence of Macrophage colony-stimulating factor 1 receptor (P07333 whole entry, the tested form may be a part): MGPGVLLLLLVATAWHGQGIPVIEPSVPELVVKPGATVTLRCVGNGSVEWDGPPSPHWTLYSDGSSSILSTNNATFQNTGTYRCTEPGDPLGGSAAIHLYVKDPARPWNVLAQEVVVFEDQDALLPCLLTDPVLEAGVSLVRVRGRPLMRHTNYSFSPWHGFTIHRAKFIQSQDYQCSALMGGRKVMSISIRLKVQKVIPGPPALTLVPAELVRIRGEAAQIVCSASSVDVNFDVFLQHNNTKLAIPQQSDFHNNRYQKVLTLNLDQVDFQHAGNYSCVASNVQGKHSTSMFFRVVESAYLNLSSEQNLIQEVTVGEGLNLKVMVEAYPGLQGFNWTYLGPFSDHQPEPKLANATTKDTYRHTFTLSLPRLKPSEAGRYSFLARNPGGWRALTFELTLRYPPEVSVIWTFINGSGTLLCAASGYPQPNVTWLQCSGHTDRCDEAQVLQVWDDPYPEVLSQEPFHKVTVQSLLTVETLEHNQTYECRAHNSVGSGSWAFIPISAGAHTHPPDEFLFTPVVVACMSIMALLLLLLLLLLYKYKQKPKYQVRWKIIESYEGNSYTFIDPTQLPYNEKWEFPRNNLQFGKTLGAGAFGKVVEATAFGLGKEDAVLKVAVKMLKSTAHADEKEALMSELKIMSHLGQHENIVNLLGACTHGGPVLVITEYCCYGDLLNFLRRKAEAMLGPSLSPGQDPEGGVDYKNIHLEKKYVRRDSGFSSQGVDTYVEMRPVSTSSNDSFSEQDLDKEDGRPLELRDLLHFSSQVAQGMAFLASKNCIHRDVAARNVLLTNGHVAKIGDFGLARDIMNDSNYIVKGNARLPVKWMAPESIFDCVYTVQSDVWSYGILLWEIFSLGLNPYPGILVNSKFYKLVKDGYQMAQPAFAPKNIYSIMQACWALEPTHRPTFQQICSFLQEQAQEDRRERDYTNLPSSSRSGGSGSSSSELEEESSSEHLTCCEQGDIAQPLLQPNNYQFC

[18] = target: Fibroblast growth factor receptor 2 (Homo sapiens, UniProt P21802); assay: Inhibition of recombinant human FGFR2 (456 to 770 residues) using poly(Glu, Tyr) 4:1 as substrate after 40 mins in presence of [gamma-33ATP] by radiometric scintillation counting analysis
[19] = target: Casein kinase I isoform delta (Homo sapiens, UniProt P48730); assay: Inhibition of recombinant human CK1delta (1 to 294 residues) using KRRRALS(p)VAS as substrate incubated for 40 mins in presence of [gamma-33ATP] by radiometric scintillation counting analysis
Sequence of Casein kinase I isoform delta (P48730 whole entry, the tested form may be a part, canonical isoform): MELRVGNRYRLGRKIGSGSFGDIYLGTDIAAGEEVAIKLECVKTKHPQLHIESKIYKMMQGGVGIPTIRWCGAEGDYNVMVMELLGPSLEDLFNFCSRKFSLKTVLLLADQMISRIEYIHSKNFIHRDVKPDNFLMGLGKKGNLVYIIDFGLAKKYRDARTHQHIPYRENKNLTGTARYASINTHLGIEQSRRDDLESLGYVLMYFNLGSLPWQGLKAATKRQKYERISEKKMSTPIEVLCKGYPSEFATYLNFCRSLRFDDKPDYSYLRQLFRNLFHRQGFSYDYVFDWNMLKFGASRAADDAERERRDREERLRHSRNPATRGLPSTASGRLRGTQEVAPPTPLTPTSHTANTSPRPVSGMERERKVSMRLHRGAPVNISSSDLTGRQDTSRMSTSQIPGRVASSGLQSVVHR

[20] = target: Homeodomain-interacting protein kinase 2 (Homo sapiens, UniProt Q9H2X6); assay: Inhibition of human recombinant HIPK2 I471N mutant (165 to 564 residues) using myelin basic protein as substrate after 40 mins by [gamma-33ATP] radiometric assay
[21] = target: Bone morphogenetic protein receptor type-2 (Homo sapiens, UniProt Q13873); assay: Inhibition of human recombinant BMPR2 (172 to 734 residues) using myelin basic protein as substrate incubated for 120 mins in presence of [gamma-33ATP] by radiometric scintillation counting analysis
Ephrin type-A receptor 3 = Ephrin type-A receptor 3 (Homo sapiens, UniProt P29320); assay: Inhibition of recombinant human EphA3 (578 to end residues) using poly(Glu, Tyr) 4:1 as substrate measured after 40 mins in presence of [gamma33ATP] by radiometric scintillation counting analysis
Sequence of Ephrin type-A receptor 3 (P29320 whole entry): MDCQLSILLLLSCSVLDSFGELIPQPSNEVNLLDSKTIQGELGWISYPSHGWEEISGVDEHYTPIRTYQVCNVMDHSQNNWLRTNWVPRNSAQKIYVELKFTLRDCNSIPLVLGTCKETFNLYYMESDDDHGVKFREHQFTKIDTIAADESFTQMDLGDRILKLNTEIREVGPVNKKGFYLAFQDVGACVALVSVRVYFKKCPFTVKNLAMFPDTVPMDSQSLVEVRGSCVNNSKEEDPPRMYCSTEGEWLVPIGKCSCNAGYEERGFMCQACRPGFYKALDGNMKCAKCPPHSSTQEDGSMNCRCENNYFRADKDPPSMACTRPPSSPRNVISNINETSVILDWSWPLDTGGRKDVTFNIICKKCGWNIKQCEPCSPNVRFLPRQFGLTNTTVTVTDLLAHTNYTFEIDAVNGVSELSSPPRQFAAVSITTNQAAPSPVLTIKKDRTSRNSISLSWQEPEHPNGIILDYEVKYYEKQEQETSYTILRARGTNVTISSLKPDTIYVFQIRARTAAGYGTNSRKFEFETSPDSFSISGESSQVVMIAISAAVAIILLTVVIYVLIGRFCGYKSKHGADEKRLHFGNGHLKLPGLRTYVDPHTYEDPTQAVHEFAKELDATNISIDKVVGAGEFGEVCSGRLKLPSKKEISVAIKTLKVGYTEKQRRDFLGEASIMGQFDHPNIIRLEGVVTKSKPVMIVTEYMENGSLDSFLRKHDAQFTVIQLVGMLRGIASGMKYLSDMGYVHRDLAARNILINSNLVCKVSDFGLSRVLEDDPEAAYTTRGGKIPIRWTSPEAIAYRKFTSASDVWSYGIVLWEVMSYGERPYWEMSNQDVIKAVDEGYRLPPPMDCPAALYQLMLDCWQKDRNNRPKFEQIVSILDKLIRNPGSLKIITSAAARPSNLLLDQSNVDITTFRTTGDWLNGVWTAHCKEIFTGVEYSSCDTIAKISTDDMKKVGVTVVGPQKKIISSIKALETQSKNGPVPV

[22] = target: Bone morphogenetic protein receptor type-1B (Homo sapiens, UniProt O00238); assay: Inhibition of human recombinant ALK6 (148 to end residues) using casein as substrate incubated for 40 mins in presence of [gamma-33P]ATP by radiometric scintillation counting analysis
[23] = target: 5'-AMP-activated protein kinase catalytic subunit alpha-1 (Homo sapiens, UniProt Q13131); assay: Inhibition of human full length AMPKalpha1 recombinant using AMARAASAAALAR as substrate incubated for 40 mins in presence of [gamma-33ATP] by radiometric scintillation counting analysis

`CN(C)c1ccc(C(=O)Nc2cccc(NC(=O)COc3ccc4c(=O)ccoc4c3)c2)cc1` gave an IC50 [1] of 0.66 µM, an IC50 [2] greater than 10 µM and an IC50 [3] greater than 10 µM. For the same compound, the IC50 [4] was greater than 10 µM, the IC50 [5] was greater than 10 µM and the IC50 (eIF-2-alpha kinase GCN2) was greater than 10 µM. The IC50 [6] was greater than 10 µM, the fraction unbound at 5 h, 1 µM [7] was 0.002 and the IC50 [8] was greater than 10 µM. For the same compound, the IC50 [9] was greater than 10 µM, the IC50 [10] was greater than 10 µM and the IC50 [11] was greater than 10 µM. The IC50 [12] was greater than 10 µM, the IC50 [13] was greater than 10 µM and the IC50 [14] was greater than 10 µM. For the same compound, the IC50 [15] was greater than 10 µM, the IC50 [16] was greater than 10 µM and the IC50 [17] was greater than 10 µM. The IC50 [18] was greater than 10 µM, the IC50 [19] was greater than 10 µM and the IC50 [20] was greater than 10 µM. It also gave an IC50 [21] greater than 10 µM, an IC50 (Ephrin type-A receptor 3) greater than 10 µM and an IC50 [22] greater than 10 µM. It also gave an IC50 [23] greater than 10 µM.
